# From patent US5206250A, “Bis-naphthalimides containing amide and thioamide linkers as anticancer agents” (Du Pont Merck Pharmaceutical Company, priority 1991, dated 1993)
# System: L1210 cells
# Test: In vitro Growth Inhibitory Activity Determination (L1210 cells, MTT)
# Type: cell-based
# Conditions: Mus musculus, 72 h, 3 days incubation at 37° C., dose of drug that inhibits the growth of cells to one half that of the control cells, read-out: ID50 (the source's name)
# Description: L1210 cells were maintained in RPMI=1640 a medium supplemented with 10% heat inactivated fetal bovine serum and […] mercaptomethanol/liter medium (RPMI-L).
# Exponential growing L1210 cells (1×10^3 cells) in 0.1 mL medium were seeded on day 0 in a 96-well microtiter plate. On day 1, 0.1 mL aliquot of medium containing graded concentration of test analogs was added to the initial volume. After incubation at 37° C. in a humidified incubator for 3 days, the plates were centrifuged briefly and […] of the growth medium was removed. Cell cultures were incubated with […] of 3-(4, 5-dimethylthiazol-2yl)-2,5- diphenyltetrazolium bromide (MTT; 1 mg/ml in Dulbecco's phosphate buffer saline) for 4 hours at 37° C. The resulting purple formazan precipitate was solubilized with […] of 0.04 N HCl in isopropyl alcohol. Absorbance was read in a Titertek Multiskan MCC scaning well spectrophotometer (Flow Laboratories) at a test wavelength of 570 nm and a reference wavelength of 630 nm.
# The absorbances were stored on a floppy disk on a IBM-XT and uploaded on to a VAX computer.
# Y=((AM - Ao)/(1+(X/ID50)n))+Ao
# Am=absorbance of the control cells
# Ao=absorbance of the cells in the presence of highest drug conc.
# ID50 =dose of drug that inhibits the growth of cells to one half that of the control cells.
row,Compound,IC50
1,CSCC[C@@H](C(=O)NCCCNC(=O)[C@H](CCSC)N1C(=O)c2cccc3cc([N+](=O)[O-])cc(c23)C1=O)N1C(=O)c2cccc3cc([N+](=O)[O-])cc(c23)C1=O [Example 3],0.12 µg/mL
2,O=C(CCN1C(=O)c2cccc3cc([N+](=O)[O-])cc(c23)C1=O)NCCNC(=O)CCN1C(=O)c2cccc3cc([N+](=O)[O-])cc(c23)C1=O [Example 9],15.1 µg/mL
3,C[C@@H](C(=O)NCCCCNC(=O)[C@H](C)N1C(=O)c2cccc3cc([N+](=O)[O-])cc(c23)C1=O)N1C(=O)c2cccc3cc([N+](=O)[O-])cc(c23)C1=O [Example 4],0.36 µg/mL
4,"C[C@@H](C(=O)NCCNC(=O)[C@H](C)N1C(=O)c2cccc3cc([N+](=O)[O-])cc(c23)C1=O)N1C(=O)c2cccc3cc([N+](=O)[O-])cc(c23)C1=O [Example 1, (S,S)-N,N'-1,2-ethanediylbis[α-methyl-5-nitro-1,3-dioxo-1H-benz[de]isoquinoline-2(3H)-acetamide]]",0.61 µg/mL
5,"C[C@@H](C(=S)NCCNC(=S)[C@H](C)N1C(=O)c2cccc3cc([N+](=O)[O-])cc(c23)C1=O)N1C(=O)c2cccc3cc([N+](=O)[O-])cc(c23)C1=O [Example 6, (S,S)-N,N'-1,2-ethanediylbis[α-methyl-5-nitro-1,3-dioxo-1H-benz[de]isoquinoline-2(3H)ethanethioamide]]",0.184 µg/mL
6,C[C@@H](C(=O)NCCCNC(=O)[C@H](C)N1C(=O)c2cccc3cc([N+](=O)[O-])cc(c23)C1=O)N1C(=O)c2cccc3cc([N+](=O)[O-])cc(c23)C1=O [Example 5],0.025 µg/mL
7,O=C(CCN1C(=O)c2cccc3cc([N+](=O)[O-])cc(c23)C1=O)NCCCCNC(=O)CCN1C(=O)c2cccc3cc([N+](=O)[O-])cc(c23)C1=O [Example 7],19 µg/mL
8,O=C(CCN1C(=O)c2cccc3cc([N+](=O)[O-])cc(c23)C1=O)NCCCNC(=O)CCN1C(=O)c2cccc3cc([N+](=O)[O-])cc(c23)C1=O [Example 8],> 20 µg/mL
9,"C[C@H](C(=O)NCCNC(=O)[C@@H](C)N1C(=O)c2cccc3cc([N+](=O)[O-])cc(c23)C1=O)N1C(=O)c2cccc3cc([N+](=O)[O-])cc(c23)C1=O [Example 2, (R,R)-N,N'-1,2-ethanediylbis[α-methyl-5-nitro-1,3-dioxo-1H-benz[de]isoquinoline-2(3H)-acetamide]]",0.033 µg/mL
